Reference: PMC10714400, “Antimicrobial Peptide–Peptoid Hybrids with and without Membrane Disruption” (ACS Infectious Diseases, 2023)
Converted amounts (≈) assume the structure as drawn. Like-named read-outs stand apart in the source and are kept apart here. Where a SMILES comes first, the peptide text is derived from it. [ ]: non-standard residue; d: D form. Nleu = CC(C)CNCC(=O)O; Nlys = NCCCCNCC(=O)O

Assays:
[1] = test system: A. baumannii ATCC19606; settings: ATCC19606, 4 h
Outline: (§1)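 MTT added (20–30 min, room temperature); MIC read by eye as lowest concentration inhibiting visible growth (yellow). Polymyxin B positive control from 16 μg/mL.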

[2] = test system: E. cloacae
Outline: as §1

[3] = test system: E. coli W3110
Outline: as §1

[4] = test system: K. pneumoniae NCTC418; settings: NCTC418, 4 h
Outline: as §1

[5] = test system: K. pneumoniae OXA-48
Outline: as §1

[6] = test system: P. aeruginosa PAO1; settings: PAO1, 4 h
Outline: as §1

[7] = test system: PA14 2P4 (pmrB)
Outline: as §1

[8] = test system: PA14 4.13 (phoQ)
Outline: as §1

[9] = test system: PA14 4.18 (pmrB)
Outline: as §1

[10] = test system: S. aureus COL (MRSA); settings: COL, 4 h
Outline: as §1

[11] = test system: ZEM-1A (clinical MDR P. aeruginosa isolate); settings: CSV
Outline: as §1

[12] = test system: ZEM9A (clinical MDR P. aeruginosa isolate)
Outline: as §1

[13] = test system: human red blood cells (hRBC); assay: Minimum hemolytic concentration (MHC); type: cell-based
Source text: We also measured minimal hemolysis concentrations (MHC) on human red blood cells by serial 2-fold dilution as an indication of toxicity against eukaryotic cells (Table 1).

[14] = test system: B. cenocepacia; settings: pH 7.4
Outline: as §1

[15] = test system: P. aeruginosa PA14
Outline: as §1

[16] = test system: S. aureus Newman; settings: Newman
Outline: as §1

[17] = test system: S. epidermis
Outline: as §1

[18] = test system: S. maltophilia
Outline: as §1

## CC(C)C[C@H](NC(=O)[C@H](CC(C)C)NC(=O)[C@H](CC(C)C)NC(=O)[C@H](CCCCN)NC(=O)[C@H](CC(C)C)NC(=O)[C@H](CC(C)C)NC(=O)CN(CCCCN)C(=O)CN(CC(C)C)C(=O)CN(CC(C)C)C(=O)CN(CCCCN)C(=O)CNCCCCN)C(N)=O [EB5, kkllkLLKLLL] (H-[Nlys][Nlys][Nleu][Nleu][Nlys]LLKLLL-NH2)
[1]; pH 7.4
  MIC A. baumannii ATCC19606, full MH at pH 7.4: 2 ug/mL
[1]; pH 8.5
  MIC A. baumannii ATCC19606, full MH at pH 8.5: >32 ug/mL
[2]; 4 h, pH 7.4
  MIC E. cloacae, full MH at pH 7.4: 12 ug/mL
[2]; 4 h, pH 8.5
  MIC E. cloacae: 4 µg/mL (≈ 3.03 µM)
[2]; pH 7.4
  MIC E. cloacae: 8 to 16 µg/mL
[3]; CSV, […] MH at pH 7.4
  MIC E. coli W3110, […] MH at pH 7.4: 2 ug/mL
[3]; CSV, […] MH at pH 8.5
  MIC E. coli W3110, […] MH at pH 8.5: 2 ug/mL
[3]; CSV, full MH at pH 7.4
  MIC E. coli W3110, full MH at pH 7.4: 2 ug/mL
[3]; CSV, full MH at pH 8.5
  MIC E. coli W3110, full MH at pH 8.5: >32 ug/mL
[3]; diluted MH ([…] MH, pH 8.5) per Table 1 footnote b, 16–20 h at 37 °C
  MIC E. coli W3110 […]: 2 µg/mL (≈ 1.51 µM)
[4]; pH 7.4
  MIC K. pneumoniae NCTC418, full MH at pH 7.4: >32 ug/mL
[4]; pH 8.5
  MIC K. pneumoniae NCTC418, full MH at pH 8.5: 24 ug/mL
  MIC K. pneumoniae NCTC418 Full MH 8.5: 16 to 32 µg/mL
[5]; CSV, […] MH at pH 8.5
  MIC K. pneumoniae OXA-48, […] MH at pH 8.5: 8 ug/mL
[5]; CSV, full MH at pH 7.4
  MIC K. pneumoniae OXA-48, full MH at pH 7.4: >32 ug/mL
[5]; MH pH 7.4, 16–20 h at 37 °C
  MIC K. pneumoniae OXA-48: 32 to 64 µg/mL
[5]; Table S3, […] MH at pH 8.5
  MIC K. pneumoniae OXA-48: 8 µg/mL (≈ 6.05 µM)
[6]; pH 7.4
  MIC P. aeruginosa PAO1, full MH at pH 7.4: 4 ug/mL
[6]; pH 8.5
  MIC P. aeruginosa PAO1, full MH at pH 8.5: >32 ug/mL
[7]; CSV, […] MH at pH 8.5
  MIC P. aeruginosa PA14 2P4, […] MH at pH 8.5: 2 ug/mL
[7]; CSV, full MH at pH 7.4
  MIC P. aeruginosa PA14 2P4, full MH at pH 7.4: >32 ug/mL
[7]; MH pH 7.4, 16–20 h at 37 °C
  MIC PA14 2P4 (pmrB): >32 µg/mL
[7]; Table S3, […] MH at pH 8.5
  MIC P. aeruginosa PA14 2P4: 2 µg/mL (≈ 1.51 µM)
[8]; CSV, […] MH at pH 8.5
  MIC P. aeruginosa PA14 4.13, […] MH at pH 8.5: 2 ug/mL
[8]; CSV, full MH at pH 7.4
  MIC P. aeruginosa PA14 4.13, full MH at pH 7.4: 8 ug/mL
[8]; MH pH 7.4, 16–20 h at 37 °C
  MIC PA14 4.13 (phoQ): 8 µg/mL (≈ 6.05 µM)
[8]; Table S3, […] MH at pH 8.5
  MIC P. aeruginosa PA14 4.13: 2 µg/mL (≈ 1.51 µM)
[9]; CSV, […] MH at pH 8.5
  MIC P. aeruginosa PA14 4.18, […] MH at pH 8.5: 2 ug/mL
[9]; CSV, full MH at pH 7.4
  MIC P. aeruginosa PA14 4.18, full MH at pH 7.4: 32 ug/mL
[9]; MH pH 7.4, 16–20 h at 37 °C
  MIC PA14 4.18 (pmrB): 32 µg/mL (≈ 24.2 µM)
[9]; Table S3, […] MH at pH 8.5
  MIC P. aeruginosa PA14 4.18: 2 µg/mL (≈ 1.51 µM)
[10]; pH 7.4
  MIC S. aureus COL (MRSA), full MH at pH 7.4: 8 ug/mL
[10]; pH 8.5
  MIC S. aureus COL (MRSA), full MH at pH 8.5: >32 ug/mL
[11]; […] MH at pH 8.5
  MIC P. aeruginosa ZEM-1A, […] MH at pH 8.5: 2 ug/mL
[11]; full MH at pH 7.4
  MIC P. aeruginosa ZEM-1A, full MH at pH 7.4: 2 ug/mL
[12]; CSV, […] MH at pH 8.5
  MIC P. aeruginosa ZEM9A, […] MH at pH 8.5: 2 ug/mL
[12]; CSV, full MH at pH 7.4
  MIC P. aeruginosa ZEM9A, full MH at pH 7.4: 8 ug/mL
[12]; MH pH 7.4, 16–20 h at 37 °C
  MIC ZEM9A: 8 µg/mL (≈ 6.05 µM)
[12]; Table S3, […] MH at pH 8.5
  MIC P. aeruginosa ZEM9A: 2 µg/mL (≈ 1.51 µM)
[13]
  MHC: 1000 µg/mL
[13]; red cells of human
  MHC (hemolysis): 250 to 1000 µg/mL
[14]; 4 h
  MIC B. cenocepacia, full MH at pH 7.4: >32 ug/mL
[14]
  MIC B. cenocepacia: >32 µg/mL
[15]; PA14, 4 h, pH 7.4
  MIC P. aeruginosa PA14, full MH at pH 7.4: 6 ug/mL
[15]; PA14, pH 7.4
  MIC P. aeruginosa PA14: 4 to 8 µg/mL
[15]; PA14, pH 8.5
  MIC P. aeruginosa PA14: 2 µg/mL (≈ 1.51 µM)
[16]; 4 h, pH 7.4
  MIC S. aureus Newman, full MH at pH 7.4: >32 ug/mL
[16]; 4 h, pH 8.5
  MIC S. aureus Newman: 2 µg/mL (≈ 1.51 µM)
[16]; pH 7.4
  MIC S. aureus Newman: >32 µg/mL
[17]; 4 h, pH 7.4
  MIC S. epidermis, full MH at pH 7.4: 6 ug/mL
[17]; 4 h, pH 8.5
  MIC S. epidermis: 2 µg/mL (≈ 1.51 µM)
[17]; pH 7.4
  MIC S. epidermis: 4 to 8 µg/mL
[18]; 4 h, pH 7.4
  MIC S. maltophilia, full MH at pH 7.4: 8 ug/mL
[18]; 4 h, pH 8.5
  MIC S. maltophilia: 4 to 8 µg/mL
[18]; pH 7.4
  MIC S. maltophilia: 8 µg/mL (≈ 6.05 µM)
